Key:
Type in all cases: cell-based, human
Bulk PBMNC [1] = assay: S100+ cells in bulk PBMNC cultures with non-cytokine additives; conditions: for % S100+: Day 7; for TOTAL # OF S100+: Day 7, projected in culture; for percent of S100+ cells: day 7, average
Protocol: (§1) Immunocytochemical staining: PBS (phosphate buffered saline) was made by dissolving 5 PBS tablets into 1000 ml millipore water. Cytospin slides were soaked in PBS. Endogenous peroxidase activity was blocked by treating slides with hydrogen peroxide/PBS (2 ml 30% H2O2+30 ml PBS) for 10 min. Slides were rinsed with PBS one time. Non-specific binding sites were blocked by incubating with normal serum matching source of secondary antibody (i.e. if secondary antibody is biotinylated goat-anti-mouse, used normal goat serum) at room temp. for 15 min. in a humidified environment. Excess serum was shaken from slides and placed 100 ul of primary antibody on slide, making sure cells are covered with liquid and incubated in humidified environment, room temp, for one hour. Negative control slides were incubated with normal serum for this hour. Slides were rinsed 3 times with PBS. Slides were incubated with biotinylated antibody reactive against the primary antibody (i.e. if primary antibody is mouse-anti-human, use a biotinylated goat-anti-mouse antibody) for 1 hour in humidity. Slides were rinsed 3 times with PBS. Slides were incubated with streptavidin-peroxidase, 2 drops/slide, for 30 min. in humidity. Slides were rinsed 3 times with PBS.
(§2) Chromagen solution was made with 5 ml millipore water+2 drops of chromagen buffer+1 drop of concentrated chromagen+1 drop of substrate, and 4-5 drops were added to each slide. […] Slides were counterstained with hematoxylin for about 5 min, or until cell nuclei were stained purple. Cells were rinsed with tap water and allowed to air dry. Slides were covered with crystal mount and oven dried at 80 degrees for 15 min. Slides were allowed to cool, then coversliped with mounting medium.
(§3) Culture of Bulk PBMNC: PBMNC cells were cultured in X-VIVO 15™ supplemented with 2 mM L- glutamine. Cultures were initiated at 5×^05 cells/ml in PL2417 gas-permeable containers (20 ml). GM-CSF and IL-4 were added to the cultures at final concentrations of 50 ng/ml and 1000 U/ml or non-cytokine additives such as Vitamin D3 at 2.5 uM, Vitamin E at 0.1%, Linoleic Acid at 5 ug/ml, or Ca++ Ionophore at 10 mM. Addition and subtraction of cells, media, and growth factors to and from PL2417 gas-permeable containers was accomplished by spiking a Sampling Site Coupler into the sample port of the container followed by use of syringes and needles. Cells were cultured in a 5% CO2, ambient O2, 37° C. humidified incubator for 7 days.
(§4) Cytospin slide preparation, Wright-Geimsa and immunohistochemical staining of the cultured cells were conducted as described in Example 1 and 2 above. Mixed lymphocyte reactions (MLR's) were setup using T cells (responders) and dendritic cell enriched cultures (stimulators) from bulk PBMNC cultures, as described above in Example 1.
The S100 protein is a nerve cell protein that has been associated with dendritic cells. In Table 47, at day 7 of culture, the highest percent of S100+ cells was present in the GM-CSF/IL-4 culture (13%).

Bulk PBMNC [2] = assay: Flow cytometry phenotype of bulk PBMNC cultures with non-cytokine additives; conditions: Day 7
Protocol: as §3
Cultured cells were phenotyped as described in Example 1 above for the following markers: […]

T cells = assay: Allogeneic MLR with bulk PBMNC cultures grown with non-cytokine additives
Protocol: MLR's were setup using T cells as responders and dendritic cell enriched cultures as antigen presenters. Sheep red blood cells were prepared and used to erythrocyte rosette T cells from a MNC preparation as described in “Current Protocols in Immunology”, John Wiley & Sons Inc, 1995. Vol. 2, 7.2.1-7.2.4. Erythrocyte+(E+ ) T cells were resuspended to 1×10^6 cells/ml in RPMI 1640/10% FCS. Dendritic cells were resuspended to 1×10^6 cells/ml in RPMI 1640/10% FCS and mitomycin C was added at 25 ug/ml to inhibit proliferation. The tubes were incubated at 37° C. for 30 min. then washed 3 times with PBS-CMF/1% HA. […] […] The appropriate control wells were also prepared. Plates were incubated for 4 or 5 days at 37° C.
Each well was pulsed with 1 uCi of ^3H-thymidine in RPMI 1640/10% FCS. Plates were incubated overnight at 37° C.
Plates were harvested onto glass fiber filter strips using a cell harvester. Discs were placed into scintillation vials containing scintillation cocktail and samples were counted using a beta radiation counter.
as §4
The functional capacity of cultured cells to induce T cell proliferation was measured in an allogeneic MLR. […] At the greatest ratio of 1:100, the differences in capacity to induce T cell proliferation is marginal between the GM-CSF/IL-4 cultured cells and the non-cytofine additive cultured cells.

Bulk PBMNC [3] = assay: Morphologically identified dendritic cells in bulk PBMNC cultures with non-cytokine additives; conditions: for % DC: Day 7; for TOTAL # OF DC: Day 7, projected in culture
Protocol: (§5) Cytofunnels were attached to microscope slides. 50,000 to 100,000 cells were removed from each culture and resuspended in approximately 100 to 200 ul of PBS-CMF. Slides were placed in the Cytospin® centrifuge and spun at 100 rpm for 4 min. Cytofunnels were removed from the slides and the slides were air dried for 1 minute. Ten drops of Wright-Geimsa stain were placed onto each slide and allowed to fix for 1 to 2 minutes. Ten drops of water were added to each slide and allowed to sit for 2 to 4 minutes. The slides were rinsed and air dried.
(§6) Reading of Cytospin Slides: Slides were read under phase contrast microscopy, 40× and 60× oil magnification. One hundred cells were identified and characterized morphologically as either dendritic cells or non-dendritic cells (lymphocytes and monocyte, or CD34+-derived cells in those cases). Digital images were taken using a color monitor and color video printer.
as §3, §4

Bulk PBMNC [4] = assay: Concentration, viability and total cells of bulk PBMNC cultured with non-cytokine additives in PL2417; conditions: Day 7, PL2417 container, X-VIVO 15
Protocol: as §3
The next set of experiments evaluated only 4 of the non-cytokine additives. These 4 were determined to have the highest ability to induce DC generation from PBMNC. The 4 non-cytokine additives examined were Vitamin D3, Vitamin E, Ca^++ Ionophore, and Linoleic Acid. These additives were compared to GM-CSF/IL-4. Bulk PBMNC were initiated at 5×10^5 cells/ml in X-VIVO 15™ using PL2417 gas-permeable containers (20 ml per container).

adherent PBMNC [5] = assay: S100 immunohistochemistry of plastic adherent cells cultured with non-cytokine additives; conditions: for percentage of S100+ cells: without GM-CSF added to additives
Protocol: as §1, with “Endogenous peroxidase activity was blocked by treating slides with hydrogen peroxide/PBS (2 ml 30% H2O2+30 ml PBS) for 10 min.” left out
as §2
(§7) Enrichment and Culture of Adherent Cells Using Polystyrene Tissue Culture Plates: PBMNC were resuspended in culture media (X-VIVO 15™+10% autologous serum) at 2×10^6 cells/ml. Cells were placed into 48 well polystyrene tissue culture plates […] and incubated for 2 hours in a 5% CO2, ambient O2, 37° C. humidified incubator. Non-adherent cells were removed from the plates then wells were rinsed with X-VIVO 15™ containing no serum. Cells remaining in the wells were adherent cells. These cells were cultured by adding 2 ml of X-VIVO 15™ to each well plus GM-CSF and IL-4 at final concentrations of 50 ng/ml and 1000 U/ml or the following: cAMP at 0.5 mM, dibutyryl cAMP at 0.1 mM, NaF at 0.25 mM, theophylline at 0.5 mM, PGE at 0.1 mM, Vitamin D3 at 2.5 uM, Vitamin E at 0.1%, Retinoic Acid at 10^−6 M, PMA at 1 pM, Linoleic Acid at 5 ug/ml, or Ca^++ Ionophore at 10 mM. Furthermore, cells were also cultured with the above non-cytokine additives plus GM-CSF at 50 ng/ml. Cells were cultured in a 5% CO2, ambient O2, 37° C. humidified incubator for 7 days.
as §4
(§8) Results: In the set of experiments using plastic adherent cells grown in polystyrene tissue culture plates, a Day 0 analysis of the cells was not performed. However, these cultures were analyzed for the presence of DC on days 4 and 7. Analysis perfomed were cell counts, viability via propidium iodide, morphology under Wright-Geimsa staining, and immunohistochemical staining using an anti-S100 antibody.

adherent PBMNC [6] = assay: DC morphology (Wright-Geimsa) of plastic adherent cells cultured with non-cytokine additives
Protocol: as §5, §6, §7, §4, §8

adherent PBMNC [7] = assay: Cell counts and viability of plastic adherent cells cultured with non-cytokine additives in polystyrene plates; parameters: % VIABLE: concentration or dose not given beside the values; conditions: for % VIABLE: propidium iodide
Protocol: Viability Determination: Prior to acquisition, 5 ul propidium iodide (PI) was added to each tube for use as a viability check. The cells were vortexed and acquired within 10 min of PI addition.
as §7, §8

[8] = Day 7, Cell Culture:T cell Ratio 1:1
[9] = Day 7, Cell Culture:T cell Ratio 1:10
[10] = Day 7, Cell Culture:T cell Ratio 1:100

SMILES | % S100+ (Bulk PBMNC [1]) [%] | TOTAL # OF S100+ (Bulk PBMNC [1]) [E + 05] | Percent of Phenotype in Culture: CD1a-PE (Bulk PBMNC [2]) [%] | Percent of Phenotype in Culture: CD14-PE (Bulk PBMNC [2]) [%] | Percent of Phenotype in Culture: CD80-PE (Bulk PBMNC [2]) [%] | Percent of Phenotype in Culture: CD86-PE (Bulk PBMNC [2]) [%] | Allogeneic MLR. Increase Over Background Proliferation (T cells; [8]) | Allogeneic MLR. Increase Over Background Proliferation (T cells; [9]) | Allogeneic MLR. Increase Over Background Proliferation (T cells; [10]) | % DC (Bulk PBMNC [3]) [%] | TOTAL # OF DC (Bulk PBMNC [3]) | CELLS/ML (Bulk PBMNC [4]) [E + 06 cells/ml] | TOTAL CELLS (Bulk PBMNC [4]) [E + 06] | VIABILITY (Bulk PBMNC [4]) [%] | percent of S100+ cells (Bulk PBMNC [1]) | other results
Cc1c(C)c2c(c(C)c1O)CCC(C)(CCCC(C)CCCC(C)CCCC(C)C)O2 (mixture of isomers) [VIT E] | 8.00 | 6.01 | 0.08 | 0.73 | 1.97 | 2.75 | 6.3 | 2.6 | 1.7 | 4.00 | 2.82E+05 | 1.87 | 7.52 | 82.41 | – | –
Cc1c(C)c2c(c(C)c1O)CCC(C)(CCCC(C)CCCC(C)CCCC(C)C)O2 (mixture of isomers) [Vitamin E] | – | – | – | – | – | – | – | – | – | – | – | – | – | – | equivalent average percentages | percentage of S100+ cells (adherent PBMNC [5]; day 4): 19%; average total number of morphologically identified DC projected in culture (Bulk PBMNC [3]; day 7): lowest total number
CNc1ccc2oc(CC3OC4(CCC3C)OC(C(C)C(=O)c3ccc[nH]3)C(C)CC4C)nc2c1C(=O)O (stereo not drawn) [Ca ++ Iono] | 7.50 | 6.17 | – | – | – | – | – | – | – | – | – | 2.22 | 8.29 | 83.72 | – | % DC (adherent PBMNC [6]; Day 4, without GM-CSF): 2.50%; % DC (adherent PBMNC [6]; Day 7, with GM-CSF present): 4.50%; % S100+ (adherent PBMNC [5]; Day 4, without GM-CSF): 17.00%; % S100+ (adherent PBMNC [5]; Day 7, with GM-CSF present): 26.50%; TOTAL CELLS (adherent PBMNC [7]; Day 4, without GM-CSF): 1.69E + 05; % VIABLE (adherent PBMNC [7]; Day 4, without GM-CSF): 74.04%; TOTAL CELLS (adherent PBMNC [7]; Day 7, with GM-CSF present): 1.05E + 05; % VIABLE (adherent PBMNC [7]; Day 7, with GM-CSF present): 82.69%
CNc1ccc2oc(CC3OC4(CCC3C)OC(C(C)C(=O)c3ccc[nH]3)C(C)CC4C)nc2c1C(=O)O (stereo not drawn) [Ca ++ lono] | – | – | 0.04 | 0.26 | 2.21 | 2.32 | – | – | – | – | – | – | – | – | – | –
CNc1ccc2oc(CC3OC4(CCC3C)OC(C(C)C(=O)c3ccc[nH]3)C(C)CC4C)nc2c1C(=O)O (stereo not drawn) [Ca++ Iono] | – | – | – | – | – | – | 4.8 | 1.8 | 0.9 | 7.00 | 5.74E+05 | – | – | – | – | –
CNc1ccc2oc(C[C@H]3O[C@@]4(CC[C@H]3C)O[C@H]([C@H](C)C(=O)c3ccc[nH]3)[C@H](C)C[C@H]4C)nc2c1C(=O)O [Ca^++ Ionophore, A23187] | – | – | – | – | – | – | – | – | – | – | – | – | – | – | equivalent average percentages | morphologically identified DC (adherent PBMNC [6]; day 7, without GM-CSF added to additives): next highest percentages; percentage of S100+ cells (adherent PBMNC [5]; day 4): 17%; percentage of S100+ cells (adherent PBMNC [5]; day 7): next highest percentages; fold fewer DC (average total number projected in culture) than GM-CSF/IL-4 cultures (Bulk PBMNC [3]; day 7): approximately 4 fold
CCCCC/C=C\C/C=C\CCCCCCCC(=O)O [Linoleic Add] | – | – | 0.08 | 0.46 | 2.61 | 2.72 | – | – | – | – | – | – | – | – | – | –
CCCCC/C=C\C/C=C\CCCCCCCC(=O)O [Linoleio Acid] | 8.50 | 7.75 | – | – | – | – | – | – | – | – | – | – | 9.18 | 87.77 | – | –
C=C1CCC(O)CC1=CC=C1CCCC2(C)C1CCC2C(C)CCCC(C)C (stereo not drawn) [VIT D3] | 5.00 | 4.16 | 0.10 | 0.53 | 2.65 | 2.62 | 6.9 | 2.7 | 1.4 | 6.50 | 5.12E+05 | 2.11 | 8.04 | 84.51 | – | –
C=C1CC[C@H](O)C/C1=C/C=C1\CCC[C@]2(C)[C@@H]([C@H](C)CCCC(C)C)CC[C@@H]12 [Vitamin D3] | – | – | – | – | – | – | – | – | – | – | – | – | – | – | lowest average percent | percentages of S100+ cells (adherent PBMNC [5]; day 7, additive added to GM-CSF 50 ng/ml): greatest percentages of S100+ cells; fold fewer DC (average total number projected in culture) than GM-CSF/IL-4 cultures (Bulk PBMNC [3]; day 7): approximately 4 fold
